For assay [1], the target named is T1, AURKA (Homo sapiens, UniProt O14965).
T1 sequence (O14965 1-403): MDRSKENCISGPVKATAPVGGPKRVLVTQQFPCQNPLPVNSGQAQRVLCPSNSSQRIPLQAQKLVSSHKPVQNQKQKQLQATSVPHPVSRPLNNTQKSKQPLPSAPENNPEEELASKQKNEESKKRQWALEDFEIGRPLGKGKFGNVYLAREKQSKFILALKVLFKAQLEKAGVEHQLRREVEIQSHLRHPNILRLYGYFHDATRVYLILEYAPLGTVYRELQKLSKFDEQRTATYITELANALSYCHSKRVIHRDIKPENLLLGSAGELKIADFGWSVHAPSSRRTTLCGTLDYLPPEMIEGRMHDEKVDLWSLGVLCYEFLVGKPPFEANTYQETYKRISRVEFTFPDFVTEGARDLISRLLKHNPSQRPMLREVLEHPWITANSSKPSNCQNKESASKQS
The experiment in a line: Western blot assay. Type of assay: cell-based. Set-up: endogenous in cells; host or cells: Jurkat. The following applies: Jurkat cells, 6 h. How it is done: Two mL of Jurkat cells were seeded into 6 well plates (Greiner) at a density of 5·10 5 cells/mL.
The following day, cells were treated with compounds at according concentrations or DMSO for 6 hours and then lysed with 6 M Urea at 4 °C for 20 minutes. The lysates were centrifuged for 15 minutes at 16000 g and the supernatant was collected to perform the Western-Blot.
Protein quantification was performed using nanodrop One. The SDS samples were prepared […]
The samples were separated by a BIS-TRIS polyacrylamide gel polyacrylamide gel, 100 V for 1:45) followed by transfer to PVDF membranes (Millipore) at 350 mA for 140 minutes. The membranes were blocked using 5%wt/vol BSA (in TBS-T, 20 mM Tris-HCl, pH 7.5, 150 mM NaCl and 0.1% (vol/vol) Tween 20) at room temperature for 1 hour.
The blots were incubated with respective primary antibodies at 1:1000 dilution (Cell Signaling technologies: Aurora A (D3E4Q), ITK (2F12) and GAPDH (D4C6R)) at 4 °C overnight. The blots were washed with TBS-T thrice and incubated with 1:5000 dilution of horseradish peroxidase (HRP)-labelled respective secondary antibodies (Cell Signaling technologies, Anti- […]
The blots were washed with TBS-T thrice and then incubated with chemiluminescent HRP substrate (Bio-Rad) for 2 minutes. The blots were imaged and the signals were detected using the Amersham ImageQuant 800 (Cytiva).
Cell culture. Human MV4-11 ([…]) and human Jurkat ([…]) cells were cultured in RPMI- […]
°C in 5% CO2. Both media were supplemented with 10% FBS and 1% penicillin/streptomycin. […]

The target of assay [2] is T2, ABL1A (Homo sapiens, UniProt P00519).
T2 construct: purchased in-house DSF panel (SGC-style construct names; the trailing A/B is a construct suffix)
T2 sequence (P00519 229-512): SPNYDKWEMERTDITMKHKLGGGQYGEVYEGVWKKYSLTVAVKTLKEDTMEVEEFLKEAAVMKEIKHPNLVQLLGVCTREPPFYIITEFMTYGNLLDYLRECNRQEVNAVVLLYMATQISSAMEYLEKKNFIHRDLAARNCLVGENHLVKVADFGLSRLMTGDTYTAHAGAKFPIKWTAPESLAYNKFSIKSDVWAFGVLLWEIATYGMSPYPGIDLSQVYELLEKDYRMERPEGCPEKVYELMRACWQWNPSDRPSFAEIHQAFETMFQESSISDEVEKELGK
Put plainly: DSF assay. The note with it: 20 µM compound. Type of assay: binding.

The target in assay [3] is T3, CAMKK2B (Homo sapiens, UniProt Q96RR4).
T3 construct: purchased in-house DSF panel (SGC-style construct names; the trailing A/B is a construct suffix)
T3 sequence (Q96RR4 161-449): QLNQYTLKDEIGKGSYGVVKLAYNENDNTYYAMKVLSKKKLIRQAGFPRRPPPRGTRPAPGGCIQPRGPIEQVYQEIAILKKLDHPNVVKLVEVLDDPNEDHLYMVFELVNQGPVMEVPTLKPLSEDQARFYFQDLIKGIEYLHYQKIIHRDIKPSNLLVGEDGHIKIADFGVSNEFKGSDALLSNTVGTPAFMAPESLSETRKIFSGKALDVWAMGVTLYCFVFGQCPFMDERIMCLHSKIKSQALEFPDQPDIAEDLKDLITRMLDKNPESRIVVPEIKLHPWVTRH
The experiment in a line: DSF assay. Type of assay: binding. The note with it: 20 µM compound.

Assay [4] addresses T4, CASKA (Homo sapiens, UniProt O14936).
T4 construct: purchased in-house DSF panel (SGC-style construct names; the trailing A/B is a construct suffix)
T4 sequence (O14936 1-337): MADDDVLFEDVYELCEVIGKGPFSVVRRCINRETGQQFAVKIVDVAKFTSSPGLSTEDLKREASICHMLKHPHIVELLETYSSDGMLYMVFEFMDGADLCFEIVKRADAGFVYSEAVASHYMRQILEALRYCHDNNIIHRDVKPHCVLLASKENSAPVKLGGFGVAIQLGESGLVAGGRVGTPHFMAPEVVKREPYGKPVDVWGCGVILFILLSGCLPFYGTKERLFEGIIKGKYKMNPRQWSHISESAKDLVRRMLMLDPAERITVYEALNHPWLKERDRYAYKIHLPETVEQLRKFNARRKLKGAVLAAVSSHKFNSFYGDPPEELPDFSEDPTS
The experiment in a line: DSF assay. Type of assay: binding. The note with it: 20 µM compound.

Assay [5] deals with T5, EPHA7A (Homo sapiens, UniProt Q15375).
T5 construct: purchased in-house DSF panel (SGC-style construct names; the trailing A/B is a construct suffix)
T5 sequence (Q15375 590-899): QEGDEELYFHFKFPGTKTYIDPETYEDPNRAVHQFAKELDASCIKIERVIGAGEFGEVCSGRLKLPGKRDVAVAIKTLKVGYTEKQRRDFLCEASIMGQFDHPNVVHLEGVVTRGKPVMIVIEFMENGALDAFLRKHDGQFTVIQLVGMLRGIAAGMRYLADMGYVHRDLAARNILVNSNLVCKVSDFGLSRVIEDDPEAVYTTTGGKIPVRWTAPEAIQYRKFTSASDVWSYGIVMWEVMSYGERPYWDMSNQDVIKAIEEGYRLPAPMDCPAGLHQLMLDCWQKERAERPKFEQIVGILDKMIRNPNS
Put plainly: DSF assay. Type of assay: binding. The following applies: 20 µM compound.

Assay [6] has as its target GPRK5A (Homo sapiens, UniProt P34947). Put plainly: DSF assay. Type of assay: binding. The note with it: 20 µM compound.
In assay [7] the target is T6, GSG2A (Homo sapiens, UniProt Q8TF76).
T6 construct: purchased in-house DSF panel (SGC-style construct names; the trailing A/B is a construct suffix)
T6 sequence (Q8TF76 465-798): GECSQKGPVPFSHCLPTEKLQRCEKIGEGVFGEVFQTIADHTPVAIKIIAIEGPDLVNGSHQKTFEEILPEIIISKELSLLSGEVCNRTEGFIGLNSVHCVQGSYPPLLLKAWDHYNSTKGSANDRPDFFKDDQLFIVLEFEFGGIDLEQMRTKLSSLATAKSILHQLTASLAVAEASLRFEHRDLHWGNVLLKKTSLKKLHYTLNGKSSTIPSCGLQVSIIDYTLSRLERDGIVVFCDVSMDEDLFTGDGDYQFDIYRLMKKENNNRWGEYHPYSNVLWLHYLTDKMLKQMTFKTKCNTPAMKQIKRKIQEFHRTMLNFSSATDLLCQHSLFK
Put plainly: DSF assay. Type of assay: binding. The following applies: 20 µM compound.

For assay [8], the target named is T7, GSK3BB (Homo sapiens, UniProt P49841).
T7 construct: purchased in-house DSF panel (SGC-style construct names; the trailing A/B is a construct suffix)
T7 sequence (P49841 35-386): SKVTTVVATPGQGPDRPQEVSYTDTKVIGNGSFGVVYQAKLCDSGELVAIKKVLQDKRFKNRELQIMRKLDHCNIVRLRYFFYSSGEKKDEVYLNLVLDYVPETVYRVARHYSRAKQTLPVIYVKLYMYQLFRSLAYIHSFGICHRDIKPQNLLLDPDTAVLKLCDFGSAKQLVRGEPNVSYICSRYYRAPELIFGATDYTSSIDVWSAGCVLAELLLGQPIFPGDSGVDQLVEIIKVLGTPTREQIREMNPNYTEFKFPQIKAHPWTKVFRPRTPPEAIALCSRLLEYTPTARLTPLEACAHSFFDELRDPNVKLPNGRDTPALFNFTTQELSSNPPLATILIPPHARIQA
The experiment in a line: DSF assay. The following applies: 20 µM compound. Type of assay: binding.

In assay [9] the target is T8, PDK4A (Homo sapiens, UniProt Q16654).
T8 construct: purchased in-house DSF panel (SGC-style construct names; the trailing A/B is a construct suffix)
T8 sequence (Q16654 whole entry): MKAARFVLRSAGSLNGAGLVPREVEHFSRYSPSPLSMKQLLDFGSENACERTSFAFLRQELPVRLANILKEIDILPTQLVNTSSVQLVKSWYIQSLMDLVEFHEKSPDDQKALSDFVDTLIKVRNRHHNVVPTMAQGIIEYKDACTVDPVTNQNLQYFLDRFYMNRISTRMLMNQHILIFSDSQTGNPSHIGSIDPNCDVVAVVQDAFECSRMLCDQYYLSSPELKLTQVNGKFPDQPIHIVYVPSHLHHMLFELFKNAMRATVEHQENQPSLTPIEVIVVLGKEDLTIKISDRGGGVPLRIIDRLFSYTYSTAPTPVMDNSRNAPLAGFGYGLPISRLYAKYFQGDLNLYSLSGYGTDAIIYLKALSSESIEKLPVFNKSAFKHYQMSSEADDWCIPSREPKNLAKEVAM
Put plainly: DSF assay. Type of assay: binding. The note with it: 20 µM compound.

Assay [10] concerns the target T9, RIOK2A (Homo sapiens, UniProt Q9BVS4).
T9 construct: purchased in-house DSF panel (SGC-style construct names; the trailing A/B is a construct suffix)
Put plainly: DSF assay. The following applies: 20 µM compound. Type of assay: binding.

In assay [11] the target is T10, STK4A (Homo sapiens, UniProt Q13043).
T10 construct: purchased in-house DSF panel (SGC-style construct names; the trailing A/B is a construct suffix)
T10 sequence (Q13043 1-311): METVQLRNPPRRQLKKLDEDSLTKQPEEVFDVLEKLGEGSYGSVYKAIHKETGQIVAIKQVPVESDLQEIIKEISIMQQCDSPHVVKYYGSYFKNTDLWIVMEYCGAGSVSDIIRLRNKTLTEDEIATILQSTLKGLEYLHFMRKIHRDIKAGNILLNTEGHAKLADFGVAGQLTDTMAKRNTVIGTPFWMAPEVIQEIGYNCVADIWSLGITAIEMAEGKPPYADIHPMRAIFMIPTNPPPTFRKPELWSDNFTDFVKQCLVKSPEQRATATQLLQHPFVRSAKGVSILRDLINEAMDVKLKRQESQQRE
Put plainly: DSF assay. Type of assay: binding. The following applies: 20 µM compound.

The structures appear in SMILES notation.

GPRK5A, sequence (P34947 186-514 limits assumed): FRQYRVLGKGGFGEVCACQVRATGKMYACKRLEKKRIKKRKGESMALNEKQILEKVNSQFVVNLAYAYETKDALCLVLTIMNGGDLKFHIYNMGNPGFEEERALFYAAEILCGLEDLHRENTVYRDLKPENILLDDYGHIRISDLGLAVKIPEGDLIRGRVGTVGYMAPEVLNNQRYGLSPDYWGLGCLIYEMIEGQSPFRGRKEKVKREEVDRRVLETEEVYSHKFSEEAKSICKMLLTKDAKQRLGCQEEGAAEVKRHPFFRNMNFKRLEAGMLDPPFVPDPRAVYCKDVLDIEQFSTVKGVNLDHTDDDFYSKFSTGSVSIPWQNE
T9 sequence (Q9BVS4 whole entry): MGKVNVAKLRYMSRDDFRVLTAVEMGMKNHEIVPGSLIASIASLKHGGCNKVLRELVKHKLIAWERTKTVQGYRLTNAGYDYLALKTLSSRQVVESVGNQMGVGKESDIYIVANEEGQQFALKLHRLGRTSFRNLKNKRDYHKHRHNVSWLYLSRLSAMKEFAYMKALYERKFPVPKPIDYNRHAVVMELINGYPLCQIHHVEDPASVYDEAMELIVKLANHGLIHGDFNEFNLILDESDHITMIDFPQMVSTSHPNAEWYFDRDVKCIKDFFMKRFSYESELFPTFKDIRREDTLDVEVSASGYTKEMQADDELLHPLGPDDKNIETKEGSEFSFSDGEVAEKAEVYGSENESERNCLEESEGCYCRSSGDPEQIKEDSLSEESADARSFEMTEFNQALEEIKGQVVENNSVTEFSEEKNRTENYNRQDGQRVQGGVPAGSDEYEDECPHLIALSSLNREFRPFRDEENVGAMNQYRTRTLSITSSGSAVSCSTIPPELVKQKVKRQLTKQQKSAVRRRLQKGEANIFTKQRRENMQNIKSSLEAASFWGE

In the case of `Cc1ncsc1-c1ccc(CNC(=O)[C@@H]2C[C@H](O)CN2C(=O)[C@@H](NC(=O)CCOCCOCCOCCN2CCN(c3cc(Nc4cc(C5CC5)[nH]n4)nc(Nc4ccc(CC#N)cc4)n3)CC2)C(C)(C)C)cc1` [4-a^neg], the “AURKA protein levels (Western blot)” value in assay [1] is on record as “no effect on AURKA levels”.

For the compound `CC(C)(C)OC(=O)NCCOCCOCCOCCOCCC(=O)N1CCN(c2cc(Nc3cc(C4CC4)[nH]n3)nc(Nc3ccc(CC#N)cc3)n2)CC1` [4-L], the ΔTm at 20 µM is 11.3 °C in [2]; 15.4 °C in assay [3]; -0.0121 °C in assay [4]; 1.51 °C in [5]; 2.06 °C in assay [6]; 1.36 °C in assay [7]. Further, the ΔTm at 20 µM in assay [8] stood at 14.8 °C; in assay [9] it was 1.49 °C; in [10] it was 6.13 °C; in [11], 9.02 °C.

On to `CCOC(=O)c1cc(Nc2cc(C3CC3)[nH]n2)nc(Nc2ccc(CC#N)cc2)n1` [compound 5], for which the ΔTm at 20 µM in [2] turned out to be 7.27 °C; in [3] it was 9.77 °C; in assay [4] it was 1.91 °C; in assay [5], 3.39 °C; in assay [6], 1.7 °C; in assay [7], 2.54 °C. The ΔTm at 20 µM in assay [8] was 14.4 °C; in assay [9], 0.03 °C; in [10] it was 6.53 °C; in [11], 8.99 °C.

On to `Cc1ncsc1-c1ccc(CNC(=O)[C@@H]2C[C@@H](O)CN2C(=O)[C@@H](NC(=O)CCOCCOCCOCCN2CCN(c3cc(Nc4cc(C5CC5)[nH]n4)nc(Nc4ccc(CC#N)cc4)n3)CC2)C(C)(C)C)cc1` [4-a], for which, in assay [1], the “AURKA protein levels (Western blot)” value was “only a weak reduction in AURKA levels”.

`Cc1ncsc1-c1ccc(CNC(=O)[C@@H]2C[C@@H](O)CN2C(=O)[C@@H](NC(=O)CCOCCOCCOCCOCCN2CCN(c3ccc(Nc4ncc(Cl)c(Nc5ccccc5C(N)=O)n4)cc3)CC2)C(C)(C)C)cc1` [6-b]: in [1], the “AURKA protein levels (Western blot)” value is listed as “only a weak reduction in AURKA levels”.

For `Cc1ncsc1-c1ccc(CNC(=O)[C@@H]2C[C@H](O)CN2C(=O)[C@@H](NC(=O)CCOCCOCCOCCOCCN2CCN(c3ccc(Nc4ncc(Cl)c(Nc5ccccc5C(N)=O)n4)cc3)CC2)C(C)(C)C)cc1` [6-b^neg], the “AURKA protein levels (Western blot)” value in [1] is listed as “no effect on AURKA levels”.

In the case of `CC(C)(C)OC(=O)NCCCOCCOCCOCCCNC(=O)c1cc(Nc2cc(C3CC3)[nH]n2)nc(Nc2ccc(CC#N)cc2)n1` [5-L], the ΔTm at 20 µM in assay [2] was determined as 6.31 °C; in assay [3], 10.7 °C; in assay [4], 1.29 °C; in assay [5], 2.65 °C; in assay [6], 2.55 °C; in assay [7] it was 1.49 °C. Also, the ΔTm at 20 µM amounted to 14.2 °C in [8], 0.13 °C in assay [9], 5.03 °C in assay [10] and 7.44 °C in [11].

The values above are taken from publication PMC11851430, “Workflow for E3 Ligase Ligand Validation for PROTAC Development” (ACS Chemical Biology, 2025).
